Assay results: patent US11845752B2, “Substituted imidazo[1,5-a]pyrazines for the treatment of hepatitis B” (ALIGOS THERAPEUTICS, INC., priority 2020, dated 2023)
pEC50: −log10 of the molar value.

Tested on: HBV
Assay: HBV-DNA antiviral assay using HepG2.117 cells (intracellular HBV DNA by qPCR)
Assay type: cell-based, HBV genotype D
Conditions: Hepatitis B virus, HepG2.117, 72 h, HBV DNA inhibition, 3 days incubation, read-out: EC50
Protocol: The following assay procedure describes the HBV antiviral assay, using HepG2.117 cells, which carry a stably integrated genotype D HBV genome under the control of a Tet-off promoter, and intracellular HBV DNA quantification as endpoint. Cell viability is assessed in parallel by measuring the intracellular ATP content using ATPlite (Perkin Elmer).
On day 0, HepG2.117 cells (which are maintained in routine cell culture with doxycycline present in the medium at a final concentration of 1 μg/mL) were seeded in 96-well plates (white with clear bottom) at a density of 2.0×10^4 cells/well (0.1 mL/well) in medium without doxycycline to induce pgRNA transcription and subsequent formation of HBV particles. The cells were incubated at 37° C. and 5% CO2.
On day 1, medium was removed from each well, the test articles were diluted in culture medium without doxcycyline and 100 μL was added to cell culture wells (9 concentrations, 4-fold dilution). For each plate, 6 untreated (merely DMSO) wells were included. The final concentration of DMSO in the culture medium was 2%. Each plate was prepared in duplicate (one for HBV DNA extraction, one for ATPlite measurement). The cells were incubated at 37° C. and 5% CO2 for 3 days.
On day 4, cell viability was assessed using ATPlite and cell lysates were prepared for HBV DNA extraction and subsequent quantification by qPCR.
Medium was removed from each well and 100 μL of 0.33% NP-40 in H2O was added to each well. Plates were sealed, incubated at 4° C. for 5 mins, vortexed extensively and centrifuged briefly. Next, 35 μL of lysate was added to 65 μL QuickExtract DNA Extraction Solution (Epicentre) in a PCR plate for each well. PCR plate was incubated at 65° C. for 6 mins, 98° C. for 2 mins and finally cooled to 4° C. HBV DNA was then quantified by qPCR with HBV-specific primers and probes as specified in Table 1 using the Bio-Rad SSOAdvanced Universal Probes Supermix on a CFX96 machine (Bio-Rad). The PCR cycle program consisted of 95° C. for 3 mins, followed by 40 cycles at 95° C. for 10 sec and 60° C. for 30 sec.
A DNA standard was prepared by dilution of an IDT gBlock corresponding to the amplicon with concentrations ranging from 10^2 to 10^8 copies/input (i.e. per 4 μL) and used to generate a standard curve by plotting Cq values vs. HBV DNA standard concentration. The quantity of HBV DNA in each sample was determined by interpolating from the standard curve.
Cell viability was calculated as follows: % Cell viability=(luminescence value of test sample)/(average luminescence value of 2% DMSO control)×100%. HBV DNA inhibition was calculated as follows: 100−(HBV DNA copy number of test sample)/(average HBV DNA copy number of 2% DMSO control)×100%. No normalization to entecavir was required due to the excellent dynamic window of this assay. The CC50, EC50 and EC90 values were determined by dose-response curves fitted using non-linear regression.

| Compound | pEC50 |
| --- | --- |
| CC1Cn2c(c(C(=O)NCc3ccccc3-c3ccncn3)n(-c3ccc(N4CCO[C@H](C(F)(F)F)C4)cc3)c2=O)CN1C(=O)c1ccc(Br)c(C(F)(F)F)c1 (mixture of isomers) [Compound 52a, rac-(6S)-7-[4-bromo-3-(trifluoromethyl)benzoyl]-6-methyl-3-oxo-N-[(2-pyrimidin-4-ylphenyl)methyl]-2-[4-[(2S)-2-(trifluoromethyl)morpholin-4-yl]phenyl]-6,8-dihydro-5H-imidazo[1,5-a]pyrazine-1-carboxamide] | 6.30 to 7.30 |
| CC1Cn2c(c(C(=O)NCc3ccccc3-c3ccncn3)n(-c3ccc(N4CCO[C@H](C(F)(F)F)C4)cc3)c2=O)CN1C(=O)c1ccc(Br)c(C(F)(F)F)c1 (mixture of isomers) [Compound 52b, rac-(6R)-7-[4-bromo-3-(trifluoromethyl)benzoyl]-6-methyl-3-oxo-N-[(2-pyrimidin-4-ylphenyl)methyl]-2-[4-[(2S)-2-(trifluoromethyl)morpholin-4-yl]phenyl]-6,8-dihydro-5H-imidazo[1,5-a]pyrazine-1-carboxamide] | > 7.30 |
| C[C@H](O)COc1ccc(-n2c(C(=O)NCc3ccccc3-c3cccnn3)c3n(c2=O)C[C@H](C)N(C(=O)c2ccc(Br)c(C(F)(F)F)c2)C3)cc1 (mixture of isomers) [Compound 57b, (6SR)-7-[4-bromo-3-(trifluoromethyl)benzoyl]-2-[4-[(2S)-2-hydroxypropoxy]phenyl]-6-methyl-3-oxo-N-[(2-pyridazin-3-ylphenyl)methyl]-6,8-dihydro-5H-imidazo[1,5-a]pyrazine-1-carboxamide] | 6.30 to 7.30 |
| C[C@H](O)COc1ccc(-n2c(C(=O)NCc3ccccc3-c3ccncn3)c3n(c2=O)C[C@@H](C)N(C(=O)c2ccc(Br)c(C(F)(F)F)c2)C3)cc1 (mixture of isomers) [Compound 58a, (6RS)-7-[4-bromo-3-(trifluoromethyl)benzoyl]-2-[4-[(2S)-2-hydroxypropoxy]phenyl]-6-methyl-3-oxo-N-[(2-pyrimidin-4-ylphenyl)methyl]-6,8-dihydro-5H-imidazo[1,5-a]pyrazine-1-carboxamide] | 6.30 to 7.30 |
| C[C@H](O)COc1ccc(-n2c(C(=O)NCc3ccccc3-c3ccncn3)c3n(c2=O)C[C@H](C)N(C(=O)c2ccc(Br)c(C(F)(F)F)c2)C3)cc1 (mixture of isomers) [Compound 58b, (6SR)-7-[4-bromo-3-(trifluoromethyl)benzoyl]-2-[4-[(2S)-2-hydroxypropoxy]phenyl]-6-methyl-3-oxo-N-[(2-pyrimidin-4-ylphenyl)methyl]-6,8-dihydro-5H-imidazo[1,5-a]pyrazine-1-carboxamide] | > 7.30 |
| C[C@@H](O)COc1ccc(-n2c(C(=O)NCc3ccccc3-c3ccccn3)c3n(c2=O)C[C@H](C)N(C(=O)c2ccc(Br)c(C(F)(F)F)c2)C3)cc1 (mixture of isomers) [Compound 60b, (6SR)-7-[4-bromo-3-(trifluoromethyl)benzoyl]-2-[4-[(2R)-2-hydroxypropoxy]phenyl]-6-methyl-3-oxo-N-[[2-(2-pyridyl)phenyl]methyl]-6,8-dihydro-5H-imidazo[1,5-a]pyrazine-1-carboxamide] | > 7.30 |
| C[C@H](O)COc1ccc(-n2c(C(=O)NCc3ccccc3-c3ccccn3)c3n(c2=O)C[C@@H](C)N(C(=O)c2ccc(Br)c(C(F)(F)F)c2)C3)cc1 (mixture of isomers) [Compound 61a, (6RS)-7-[4-bromo-3-(trifluoromethyl)benzoyl]-2-[4-[(2S)-2-hydroxypropoxy]phenyl]-6-methyl-3-oxo-N-[[2-(2-pyridyl)phenyl]methyl]-6,8-dihydro-5H-imidazo[1,5-a]pyrazine-1-carboxamide] | > 7.30 |
| C[C@H](O)COc1ccc(-n2c(C(=O)NCc3ccccc3-c3ccccn3)c3n(c2=O)C[C@H](C)N(C(=O)c2ccc(Br)c(C(F)(F)F)c2)C3)cc1 (mixture of isomers) [Compound 61b, (6SR)-7-[4-bromo-3-(trifluoromethyl)benzoyl]-2-[4-[(2S)-2-hydroxypropoxy]phenyl]-6-methyl-3-oxo-N-[[2-(2-pyridyl)phenyl]methyl]-6,8-dihydro-5H-imidazo[1,5-a]pyrazine-1-carboxamide] | > 7.30 |
| C[C@@H](O)COc1ccc(-n2c(C(=O)NCc3ccccc3-c3ncccn3)c3n(c2=O)C[C@H](C)N(C(=O)c2ccc(Br)c(C(F)(F)F)c2)C3)cc1 (mixture of isomers) [Compound 64b, (6SR)-7-[4-bromo-3-(trifluoromethyl)benzoyl]-2-[4-[(2R)-2-hydroxypropoxy]phenyl]-6-methyl-3-oxo-N-[(2-pyrimidin-2-ylphenyl)methyl]-6,8-dihydro-5H-imidazo[1,5-a]pyrazine-1-carboxamide] | 6.30 to 7.30 |
| C[C@@H]1Cn2c(c(C(=O)NCc3ccccc3-c3cccnn3)n(-c3ccc(OC[C@@H](O)C(F)(F)F)cc3)c2=O)CN1C(=O)c1ccc(Br)c(C(F)(F)F)c1 (mixture of isomers) [Compound 66a, (6RS)-7-[4-bromo-3-(trifluoromethyl)benzoyl]-6-methyl-3-oxo-N-[(2-pyridazin-3-ylphenyl)methyl]-2-[4-[(2R)-3,3,3-trifluoro-2-hydroxy-propoxy]phenyl]-6,8-dihydro-5H-imidazo[1,5-a]pyrazine-1-carboxamide] | 6.30 to 7.30 |
| C[C@H]1Cn2c(c(C(=O)NCc3ccccc3-c3cccnn3)n(-c3ccc(OC[C@@H](O)C(F)(F)F)cc3)c2=O)CN1C(=O)c1ccc(Br)c(C(F)(F)F)c1 (mixture of isomers) [Compound 66b, (6SR)-7-[4-bromo-3-(trifluoromethyl)benzoyl]-6-methyl-3-oxo-N-[(2-pyridazin-3-ylphenyl)methyl]-2-[4-[(2R)-3,3,3-trifluoro-2-hydroxy-propoxy]phenyl]-6,8-dihydro-5H-imidazo[1,5-a]pyrazine-1-carboxamide] | 6.30 to 7.30 |
| C[C@@H]1Cn2c(c(C(=O)NCc3ccccc3-c3cccnn3)n(-c3ccc(OC[C@H](O)C(F)(F)F)cc3)c2=O)CN1C(=O)c1ccc(Br)c(C(F)(F)F)c1 (mixture of isomers) [Compound 67a, (6RS)-7-[4-bromo-3-(trifluoromethyl)benzoyl]-6-methyl-3-oxo-N-[(2-pyridazin-3-ylphenyl)methyl]-2-[4-[(2S)-3,3,3-trifluoro-2-hydroxy-propoxy]phenyl]-6,8-dihydro-5H-imidazo[1,5-a]pyrazine-1-carboxamide] | 6.30 to 7.30 |
| C[C@H]1Cn2c(c(C(=O)NCc3ccccc3-c3cccnn3)n(-c3ccc(OC[C@H](O)C(F)(F)F)cc3)c2=O)CN1C(=O)c1ccc(Br)c(C(F)(F)F)c1 (mixture of isomers) [Compound 67b, (6SR)-7-[4-bromo-3-(trifluoromethyl)benzoyl]-6-methyl-3-oxo-N-[(2-pyridazin-3-ylphenyl)methyl]-2-[4-[(2S)-3,3,3-trifluoro-2-hydroxy-propoxy]phenyl]-6,8-dihydro-5H-imidazo[1,5-a]pyrazine-1-carboxamide] | > 7.30 |
| C[C@H]1Cn2c(c(C(=O)NCc3ccccc3-c3ccccn3)n(-c3ccc(OC[C@@H](O)C(F)(F)F)cc3)c2=O)CN1C(=O)c1ccc(Br)c(C(F)(F)F)c1 (mixture of isomers) [Compound 68b, (6SR)-7-[4-bromo-3-(trifluoromethyl)benzoyl]-6-methyl-3-oxo-N-[[2-(2-pyridyl)phenyl]methyl]-2-[4-[(2R)-3,3,3-trifluoro-2-hydroxy-propoxy]phenyl]-6,8-dihydro-5H-imidazo[1,5-a]pyrazine-1-carboxamide] | > 7.30 |
| C[C@H]1Cn2c(c(C(=O)NCc3ccccc3-c3ccccn3)n(-c3ccc(OC[C@H](O)C(F)(F)F)cc3)c2=O)CN1C(=O)c1ccc(Br)c(C(F)(F)F)c1 (mixture of isomers) [Compound 69b, (6SR)-7-[4-bromo-3-(trifluoromethyl)benzoyl]-6-methyl-3-oxo-N-[[2-(2-pyridyl)phenyl]methyl]-2-[4-[(2S)-3,3,3-trifluoro-2-hydroxy-propoxy]phenyl]-6,8-dihydro-5H-imidazo[1,5-a]pyrazine-1-carboxamide] | 6.30 to 7.30 |
